Like-named read-outs stand apart in the source and are kept apart here. Each block holds one compound with its values, some of them ahead of it.
Columns and labels:
[1] = system: human skin fibroblasts; assay: in vitro
Excerpt: (§1) The following examples are offered to illustrate the practice of the present invention. It is important to note that this invention is not limited to any particular transdermal device or other form of transdermal delivery, as are commonly known in the art. Nor is this invention limited to a particular formulation. Therefore, the embodiments described herein are merely illustrative and are not intended to limit the scope of the invention in any manner.
(§2) Four beta-adrenergic blocking drugs (propranolol, labetalol, pindolol and timolol) were tested for their uptake and their toxicity in human skin fibroblasts.
(§3) To estimate the toxicity of the tested compounds, the general procedure of the MTT assay (Swisher et al., Models Dermatol., Maibach and Lowe (eds.), Basel, Karger, vol. 4, pp 131-137, 1989) was used. Cell cultures of fibroblasts were incubated for 16 hours in medium containing a range of concentrations of the drug being tested. At the end of the incubation time, the medium was removed and replaced with medium containing MTT at 0.5 mg/ml. After 3 hours, this medium was discarded and the blue formazan, a metabolite of MTT produced only by viable cells, was dissolved in acidified isopropanol. Absorbance of this solution was measured at 540 nm against a reference wavelength of 660 nm. Results were then expressed as percent of control cultures incubated in the same conditions without drug or agent.
(§4) The treated cells were also tested for the cytotoxic effect of propranolol in the presence of various concentrations of monensin, following the procedures of Example 1.
(§5) They were tested with 10^-6 M monensin.
(§6) In the Table, the "factor of protection" is the ratio of the ID50 of the toxic drug incubated with monensin to the ID50 of the toxic drug alone.
(§7) The action of various ionophores and amphiphilic amines on the cytotoxicity of propranolol and chloroquine was determined, following the procedures of Example 1. The "factor of protection" corresponds to the ratio of the ID50 of the toxic drug incubated with uptake-inhibiting agent at the indicated concentration, to the ID50 of the toxic drug alone. The "mode of action" indicates either the ions which are preferentially carried by the tested ionophores or that the agent acts by competition.

[2] = system: lysosomes; settings: literature; cited from earlier work
[3] = in vitro; settings: human, skin fibroblasts
Excerpt: as §1, §2, §3, §4, §5, §6, §7

[4] = In vitro permeation through human epidermis from gels; assay type: in vitro ADME; settings: gels of Example 5; 37° C.; sampled at 3, 8 and 24 hours
Method: Circular pieces of human epidermis were mounted in horizontal permeation cells (1.13 cm^2 of effective permeating surface) with the stratum corneum facing the donor compartment of the cell. A known volume (20-23 ml) of 0.2M TRIS buffer pH 7.5 (the receptor solution) was placed in the receptor compartment. The cell was then placed in a water bath-shaker at 37° C. and allowed to equilibrate. A 0.2 ml aliquot of the tested formulation was transferred to the donor compartment. Occlusion was achieved by the use of a teflon film in contact with the formulation. At 3, 8 and 24 hours, the receptor solutions were removed and replaced with equal volumes of fresh receptor solution previously equilibrated at 37° C. Chloroquine was quantified in the samples by fluorometrical measurements. These were carried out at room temperature in a Perkin-ElmerLS-5B luminescence spectrometer. The samples were adjusted to pH 8.65 at a final TRIS concentration of 0.1M and 30% (vol/vol) ethanol. The excitation wavelength was 333 nm and the emission wavelength was 382 nm. Chloroquine concentrations were extrapolated by comparison with a standard curve obtained under the same conditions. […] For each formulation condition, eight permeation cells were used. Results are presented as the means with their associated standard error.

[5] = system: skin irritation (erythema), volar forearm; assay: In vivo skin irritation (erythema, Minolta Chromameter) after 16 h application of gel to volar forearm; set-up: species or system human; settings: monensin 5.0 wt % with chloroquine 1.0 wt % gel
Method: The resulting gels were buffered to pH 8.5 with EPPS buffer and contained 30 wt % ethanol to maintain the solubility of the drug.
All of the gels were placed in such manner. After 16 hours, each cup was removed and the site was washed. At various times thereafter the sites were observed and the intensity of the irritant reaction (the erythema) was scored by measuring skin color with an electronic instrument, the Minolta Chromameter.

[6] = system: human skin fibroblasts; assay: Uptake/accumulation of radiolabelled drug in fibroblasts, 16 h incubation; assay type: cell-based
Method: For the uptake studies, cell cultures of fibroblasts were exposed to medium containing the radioactive-labelled drug and incubated for 16 hours. The uptake process was then stopped by removing the medium and rapidly washing the cells with cold PBS three times. The cells were then extracted with methanol which was transferred to counting vials, and the amount of radioactivity was measured by liquid scintillation. To compensate for non-specific binding to the plastic of the wells, wells containing no cells were incubated with the radiolabelled drugs under the same conditions. The radioactive content of those wells was taken as the control value and substracted form the radioactive content of the wells containing cells.
Fibroblast cell cultures were incubated for 16 hours in propranolol (2×10^-7 M) with various concentrations of monensin. The accumulation of propranolol in the cells was then determined, following the procedures of Example 1. […] At 10^-5 M monensin, propranolol uptake was negligible even though the cells were fully viable.

[7] = against chloroquine cytotoxicity, agent 10^-5 M
[8] = against propranolol cytotoxicity, agent 10^-5 M
[9] = against chloroquine cytotoxicity, agent 10^-2 M

Factor of Protection, Chloroquine (ID50 with agent / ID50 alone) [1]: 1
Factor of Protection, Propranolol (ID50 with agent / ID50 alone) [1]: 1
Compound: C1COCCOCCOCCOCCO1 [15-Crown-5]

Compound: Oc1ccc2ccccc2c1-c1c(O)ccc2ccccc12 [(R)(+)-1,1'-bi-2-Naphthol, (R)(+)-1,1'-bi-2-naphthol]
Factor of Protection, Chloroquine (ID50 with agent / ID50 alone) ([1]; against chloroquine cytotoxicity, agent 3.5 × 10^-5 M): 2.9

Compound: CNc1ccc2oc(C[C@H]3O[C@@]4(CC[C@H]3C)O[C@H]([C@H](C)C(=O)c3ccc[nH]3)[C@H](C)C[C@H]4C)nc2c1C(=O)O [A23187]
Factor of Protection, Chloroquine (ID50 with agent / ID50 alone) ([1]; against chloroquine cytotoxicity, agent 10^-6 M): 11
Factor of Protection, Propranolol (ID50 with agent / ID50 alone) ([1]; against propranolol cytotoxicity, agent 10^-6 M): 1

Compound: N#CC(C#N)=NNc1cccc(Cl)c1 [Carbonyl cyanide m-chlorophenylhydrazone, carbonyl cyanide m-chlorophenylhydrazone]
Factor of Protection, Chloroquine (ID50 with agent / ID50 alone) [1, 7]: 13
Factor of Protection, Propranolol (ID50 with agent / ID50 alone) [1, 8]: 1

Compound: CCN(CC)CCCC(C)Nc1ccnc2cc(Cl)ccc12 (stereo not shown) [Chloroquine, chloroquine]
Accumulation in lysosomes [2]: have been shown to accumulate in lysosomes
Factor of Protection (ID50 with monensin / ID50 alone) [1]: 10.0
Factor of Protection, Propranolol (ID50 with agent / ID50 alone) [1]: 1
CC50 at 16 h ([3]; ID50 (M), Drug + Monensin): 0.0007 M
CC50 at 16 h ([3]; ID50 (M), Drug Alone): 7e-05 M
Permeation through human epidermis with versus without ammonium chloride [4]: the same

Factor of Protection (ID50 with monensin / ID50 alone) [1]: 1.6
Compound: CN(C)CCCN1c2ccccc2Sc2ccc(Cl)cc21 [Chlorpromazine]
CC50 at 16 h ([3]; ID50 (M), Drug + Monensin, Table A, with 10^-6 M monensin, 16 h): 1.6e-05 M
CC50 at 16 h ([3]; ID50 (M), Drug Alone, Table A, 16 h): 1e-05 M

Factor of Protection (ID50 with monensin / ID50 alone) [1]: 1.2
Compound: CN1CCC[C@@H]1CCO[C@](C)(c1ccccc1)c1ccc(Cl)cc1 [Clemastine]

Factor of Protection, Chloroquine (ID50 with agent / ID50 alone) [1]: 1.5
Compound: OCCNCCO [Diethanolamine]

Compound: CCNCC [Diethylamine]
Factor of Protection, Chloroquine (ID50 with agent / ID50 alone) [1, 9]: 3.3

Factor of Protection, Chloroquine (ID50 with agent / ID50 alone) [1]: 6.4
Compound: NCCO [Ethanolamine]

Compound: CN(C)CCCN1c2ccccc2CCc2ccccc21 [Imipramine]
Factor of Protection (ID50 with monensin / ID50 alone) [1]: 1.4
CC50 at 16 h ([3]; ID50 (M), Drug + Monensin): 0.00027 M
CC50 at 16 h ([3]; ID50 (M), Drug Alone): 0.00019 M

Compound: CC(C)N [Isopropylamine]
Factor of Protection, Chloroquine (ID50 with agent / ID50 alone) [1, 9]: 6.2

Compound: CC[C@@]1([C@@H]2O[C@@H]([C@H]3O[C@@](O)(CO)[C@H](C)C[C@@H]3C)C[C@@H]2C)CC[C@H]([C@]2(C)CC[C@]3(C[C@H](O)[C@@H](C)[C@@H]([C@@H](C)[C@@H](OC)[C@H](C)C(=O)O)O3)O2)O1 [Monensin, monensin]
Effect of monensin on irritant reaction (erythema) [5]: reduced the irritant reaction
Effect of monensin on toxicity of five weak base drugs ([1]; 10^-6 M monensin, clemastine, imipramine, chlorpromazine, quinacrine, chloroquine): reduced the toxicity of all the drugs
Factor of Protection, Chloroquine (ID50 with agent / ID50 alone) [1, 7]: 19
Factor of Protection, Propranolol (ID50 with agent / ID50 alone) ([1]; against propranolol cytotoxicity, agent 10^-5 M, pre-treatment of 2 hours with agent): 1.41
Effect of monensin on propranolol toxicity ([1]; monensin 10^-8 M to 10^-5 M): dose-dependent decrease of propranolol toxicity
Propranolol uptake at 10^-5 M monensin ([6]; propranolol 2×10^-7 M, monensin 10^-5 M): negligible
Effect of monensin on propranolol uptake in the cells ([6]; propranolol 2×10^-7 M, monensin 10^-8 M to 10^-5 M): decreased propranolol uptake in the cells in a dose-dependent manner
Viability of cells at 10^-5 M monensin ([6]; with propranolol 2×10^-7 M, monensin 10^-5 M): fully viable

Compound: CO[C@@H]1C[C@@H](C[C@H]2CC[C@H](C)[C@H]([C@@H](C)C(=O)O)O2)O[C@]2(O[C@](C)([C@H]3CC[C@@](C)([C@@H]4O[C@@H]([C@H]5O[C@@](O)(CO)[C@H](C)C[C@@H]5C)C[C@@H]4C)O3)C[C@H]2C)[C@@H]1C [Nigericin]
Factor of Protection, Chloroquine (ID50 with agent / ID50 alone) ([1]; against chloroquine cytotoxicity, agent 1.5 × 10^-7 M): 11

Compound: C[C@@H]1C[C@H]2CC[C@H](O2)[C@H](C)C(=O)O[C@@H](C)C[C@@H]2CC[C@@H](O2)[C@@H](C)C(=O)O[C@H](C)C[C@H]2CC[C@H](O2)[C@H](C)C(=O)O[C@@H](C)C[C@@H]2CC[C@@H](O2)[C@@H](C)C(=O)O1 [Nonactin]
Factor of Protection, Chloroquine (ID50 with agent / ID50 alone) ([1]; against chloroquine cytotoxicity, agent 5 × 10^-6 M): 26
Factor of Protection, Propranolol (ID50 with agent / ID50 alone) ([1]; against propranolol cytotoxicity, agent 5 × 10^-6 M): 1

Compound: CC(C)NCC(O)COc1cccc2ccccc12 (stereo not shown) [Propranolol, propranolol]
Accumulation in lysosomes [2]: have been shown to accumulate in lysosomes
Factor of Protection, Chloroquine (ID50 with agent / ID50 alone) [1]: 1.8
CC50 at 16 h ([3]; ID50 (concentration of drug required to kill 50% of the cells), drug alone): 0.00028 M
CC50 at 16 h ([3]; ID50 (concentration of drug required to kill 50% of the cells), drug with monensin): 0.00038 M

Factor of Protection (ID50 with monensin / ID50 alone) [1]: 3.2
Compound: CCN(CC)CCCC(C)Nc1c2ccc(Cl)cc2nc2ccc(OC)cc12 (stereo not shown) [Quinacrine]
CC50 at 16 h ([3]; ID50 (M), Drug + Monensin): 4.2e-05 M
CC50 at 16 h ([3]; ID50 (M), Drug Alone): 1.3e-05 M

Factor of Protection, Chloroquine (ID50 with agent / ID50 alone) [1]: 1.2
Compound: NC(CO)(CO)CO [Tromethamine]

Compound: CC(C)[C@@H]1NC(=O)[C@H](C)OC(=O)[C@@H](C(C)C)NC(=O)[C@@H](C(C)C)OC(=O)[C@H](C(C)C)NC(=O)[C@H](C)OC(=O)[C@@H](C(C)C)NC(=O)[C@@H](C(C)C)OC(=O)[C@H](C(C)C)NC(=O)[C@H](C)OC(=O)[C@@H](C(C)C)NC(=O)[C@@H](C(C)C)OC1=O [Valinomycin]
Factor of Protection, Chloroquine (ID50 with agent / ID50 alone) [1, 7]: 13
Factor of Protection, Propranolol (ID50 with agent / ID50 alone) [1, 8]: 1

Compound: Ammonium chloride
Factor of Protection, Chloroquine (ID50 with agent / ID50 alone) ([1]; against chloroquine cytotoxicity, agent 4 × 10^-2 M): 26
Factor of Protection, Propranolol (ID50 with agent / ID50 alone) ([1]; against propranolol cytotoxicity, agent 4 × 10^-2 M, pre-treatment of 2 hours with agent): 1.3

Compound: Gramicidin D
Factor of Protection, Chloroquine (ID50 with agent / ID50 alone) [1, 7]: 31
Factor of Protection, Propranolol (ID50 with agent / ID50 alone) [1, 8]: 1
